How the values were obtained:
UT-B [1] = target: T1, UT-B (Homo sapiens, UniProt Q13336); assay: RBC lysis assay, human RBCs; assay type: cell-based; details: lysis assay, FIG. 5B, read-out: apparent EC50
T1 construct: a red blood cell (i.e., erythrocyte), which endogenously expresses the urea transporter UT-B; endogenous in cells; host or cells: human red blood cells (whole venous blood, single donor)
T1 sequence (Q13336 1-389): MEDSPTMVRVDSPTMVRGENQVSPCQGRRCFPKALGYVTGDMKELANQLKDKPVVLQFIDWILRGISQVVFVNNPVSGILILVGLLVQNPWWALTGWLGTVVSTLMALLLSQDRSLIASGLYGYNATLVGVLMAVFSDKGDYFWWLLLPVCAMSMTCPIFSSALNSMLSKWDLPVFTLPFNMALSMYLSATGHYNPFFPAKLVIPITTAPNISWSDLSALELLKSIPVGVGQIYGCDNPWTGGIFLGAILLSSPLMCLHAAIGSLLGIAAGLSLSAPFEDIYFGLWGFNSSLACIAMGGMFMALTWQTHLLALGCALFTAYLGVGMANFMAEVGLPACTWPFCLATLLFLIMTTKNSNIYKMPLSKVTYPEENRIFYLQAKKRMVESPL
Excerpt: Vigorous mixing was achieved by repeated pipetting.

UT-B [2] = target: T1, UT-B; assay: Stopped-flow light scattering, urea transport in human RBCs; assay type: cell-based; details: for inhibition of urea transport, inhibitor added externally only (sidedness): inhibitor only in urea-containing solution at time of stopped-flow; for reversibility of inhibition after washing of RBCs: 10 min pre-incubation (0.1 μM ureainh-101, 0.4 μM ureainh-302), then washout
Procedure: RBC urea and water permeabilities were assayed by stopped-flow light scattering using a Hi-Tech Sf-51 instrument (Wiltshire, UK). […] After an initial osmotic shrinking phase, the kinetics of increasing cell volume caused by urea influx were measured as the time-course of 90° scattered light intensity at 530 nm, with increasing cell volume resulting in reduced scattered light intensity. As a positive control, 0.7 mM phloretin was added to the RBC suspension prior to stopped-flow experiments. Measurements of water permeability were carried out similarly, with sucrose (cell-impermeant) used instead of urea to establish a 250-mM osmotic gradient. As a positive control, HgCl2 (0.3 mM) was added to the RBC suspension prior to stopped-flow measurements. Osmotic water permeability coefficients (Pf) were computed from light scattering data as described (van Hoek et al., J Biol Chem. 267:18267-69 (1992)).
After repeating the 96-well plate RBC lysis assay to confirm compound activity (see Example 2), bona fide urea transport inhibition was determined by stopped-flow light scattering from the kinetics of urea influx (RBC swelling) in response to an inwardly directed urea gradient. Rapid mixing of an RBC suspension with a hyperosmolar solution containing excess 250 mM urea produced rapid cell shrinking due to osmotic water efflux, followed by cell swelling as urea (and water) influx occurred.
To determine EC50 values for urea transport inhibition directly, RBC urea transport was measured by stopped-flow light scattering using a non-saturating concentration of extracellular urea (to avoid possible competition effects). EC50 for inhibition of RBC urea transport was determined independently by comparing stopped-flow light scattering curves to a model of cell shrinking-swelling. […]
The two coupled differential equations describing water efflux and solute influx in response to externally added urea or methylurea were numerically integrated using the forward Euler method (Δt=0.01 s) to reproduce the biphasic changes in cell volume observed experimentally. […] For each time step, a new cell volume (normalized to the initial size; V(i+1)/V(0)) and a new cell permeant concentration (U(i+1)) were calculated from V(i+1)/V(0)=V(i)/V(0)−Δt·Pf·(S/V(0))·vw·[Ie(1−V(i)/V(0))+(Ue−Uc(i))] and Uc(i+1)=Uc(i)/V(0)−Δt·Us·(S/V(0))·vw·(Ue−Uc(i)). […] The product of Pf and the surface area-to-volume ratio (S/V(0)) was determined to be 3.4×10^2 s^−1 and 8.5×10^2 s^−1 for human and mouse erythrocytes, respectively, from water permeability measurements. […]

Structure (SMILES): NC(=O)CSc1oc(-c2ccccc2)nc1S(=O)(=O)c1ccc(Br)cc1 [ureainh-101]
- EC50 (UT-B [1]): 30 nM
- inhibition of urea transport, inhibitor added externally only (sidedness) (UT-B [2]; 0.1 μM): did not inhibit urea transport
- reversibility of inhibition after washing of RBCs (UT-B [2]): fully reversible inhibition

Structure (SMILES): Cc1ccc(Nc2nnc(-c3ccc(C(N)=O)cc3)c3ccccc23)cc1 [ureainh-302]
- EC50 (UT-B [1]): 100 nM
- inhibition of urea transport, inhibitor added externally only (sidedness) (UT-B [2]; 0.2 μM): had a sizable effect
- reversibility of inhibition after washing of RBCs (UT-B [2]): fully reversible inhibition
